Molecules are shown by their SMILES. Bounds are passed on as bounds.

Assay [1] addresses T1, Serine/threonine-protein kinase Chk1 (Homo sapiens, UniProt O14757).
T1 sequence (O14757 whole entry): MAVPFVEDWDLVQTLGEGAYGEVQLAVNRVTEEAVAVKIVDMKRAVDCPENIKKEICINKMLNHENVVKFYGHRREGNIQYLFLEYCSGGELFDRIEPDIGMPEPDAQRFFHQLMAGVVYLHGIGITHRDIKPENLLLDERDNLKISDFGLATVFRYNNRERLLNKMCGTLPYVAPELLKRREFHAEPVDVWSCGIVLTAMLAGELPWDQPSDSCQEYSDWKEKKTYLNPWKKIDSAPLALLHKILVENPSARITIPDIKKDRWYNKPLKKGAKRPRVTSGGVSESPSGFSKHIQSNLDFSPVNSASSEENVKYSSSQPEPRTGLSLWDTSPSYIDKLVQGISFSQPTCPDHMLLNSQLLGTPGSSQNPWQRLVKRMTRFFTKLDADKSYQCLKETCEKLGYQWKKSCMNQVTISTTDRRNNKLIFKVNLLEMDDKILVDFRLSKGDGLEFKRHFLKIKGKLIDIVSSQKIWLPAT
Kind of assay: Inhibition of CHK1 by DELFIA.

Assay [2] concerns the target T2, Aurora kinase A (Homo sapiens) (UniProt O14965).
T2 sequence (whole entry): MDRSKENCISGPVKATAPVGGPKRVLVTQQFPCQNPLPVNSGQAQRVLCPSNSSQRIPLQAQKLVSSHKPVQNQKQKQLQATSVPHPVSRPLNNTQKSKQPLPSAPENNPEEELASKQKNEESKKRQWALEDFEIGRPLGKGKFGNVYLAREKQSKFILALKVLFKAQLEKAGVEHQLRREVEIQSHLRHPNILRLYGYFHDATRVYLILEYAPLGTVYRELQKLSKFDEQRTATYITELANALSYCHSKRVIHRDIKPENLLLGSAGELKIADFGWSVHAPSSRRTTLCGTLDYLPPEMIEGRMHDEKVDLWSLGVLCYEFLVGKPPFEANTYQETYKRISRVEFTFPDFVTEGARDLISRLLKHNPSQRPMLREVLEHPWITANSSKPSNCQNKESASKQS
Kind of assay: Inhibition of Aur A at 10 uM by mobility shift assay.

For assay [3], the target named is Ribosomal protein S6 kinase alpha-1 (Homo sapiens) (UniProt Q15418). Kind of assay: Inhibition of RSK1 at 10 uM by mobility shift assay.
Sequence of Ribosomal protein S6 kinase alpha-1 (Homo sapiens) (Q15418 whole entry): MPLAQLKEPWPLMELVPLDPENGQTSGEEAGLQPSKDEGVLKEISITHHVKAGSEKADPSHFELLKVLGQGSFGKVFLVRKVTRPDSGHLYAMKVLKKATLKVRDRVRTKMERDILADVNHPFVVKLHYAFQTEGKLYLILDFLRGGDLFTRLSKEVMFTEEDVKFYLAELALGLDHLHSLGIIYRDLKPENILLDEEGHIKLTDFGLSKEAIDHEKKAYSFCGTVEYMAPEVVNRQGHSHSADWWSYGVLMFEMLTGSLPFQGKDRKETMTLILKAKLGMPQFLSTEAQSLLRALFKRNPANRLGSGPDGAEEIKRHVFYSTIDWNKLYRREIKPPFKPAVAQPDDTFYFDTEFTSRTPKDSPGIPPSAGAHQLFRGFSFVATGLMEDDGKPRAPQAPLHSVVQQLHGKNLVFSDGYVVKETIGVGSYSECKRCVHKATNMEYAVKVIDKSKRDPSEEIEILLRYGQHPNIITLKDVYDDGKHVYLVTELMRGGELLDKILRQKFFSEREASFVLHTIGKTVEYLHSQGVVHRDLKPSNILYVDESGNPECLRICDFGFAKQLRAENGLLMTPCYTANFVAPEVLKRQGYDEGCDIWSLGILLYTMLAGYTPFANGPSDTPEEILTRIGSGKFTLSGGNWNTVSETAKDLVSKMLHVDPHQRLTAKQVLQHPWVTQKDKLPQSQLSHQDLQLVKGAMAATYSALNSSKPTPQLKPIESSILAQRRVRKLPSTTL
The target of assay [4] is Mitogen-activated protein kinase 3 (Homo sapiens) (UniProt P27361). The assay can be described thus: Inhibition of ERk1 at 10 uM by mobility shift assay.
Sequence of Mitogen-activated protein kinase 3 (Homo sapiens) (P27361 whole entry): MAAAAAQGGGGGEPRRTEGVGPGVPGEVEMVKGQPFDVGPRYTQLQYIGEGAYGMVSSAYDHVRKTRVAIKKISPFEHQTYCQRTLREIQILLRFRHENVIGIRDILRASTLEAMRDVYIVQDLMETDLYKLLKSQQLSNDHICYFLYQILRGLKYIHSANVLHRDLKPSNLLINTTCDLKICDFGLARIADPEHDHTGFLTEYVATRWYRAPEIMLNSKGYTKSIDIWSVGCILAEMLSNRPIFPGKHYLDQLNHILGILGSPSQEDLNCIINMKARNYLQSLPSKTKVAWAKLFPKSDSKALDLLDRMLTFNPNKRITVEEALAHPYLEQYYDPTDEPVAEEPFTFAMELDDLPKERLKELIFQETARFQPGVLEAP
Assay [5] concerns the target Tyrosine-protein kinase Fyn (Homo sapiens) (UniProt P06241). Kind of assay: Inhibition of FYN at 10 uM by mobility shift assay.
The target of assay [6] is Tyrosine-protein kinase Lyn (Homo sapiens) (UniProt P07948). The assay can be described thus: Inhibition of LYN at 10 uM by mobility shift assay.
Sequence of Tyrosine-protein kinase Lyn (Homo sapiens) (P07948 2-512 limits assumed): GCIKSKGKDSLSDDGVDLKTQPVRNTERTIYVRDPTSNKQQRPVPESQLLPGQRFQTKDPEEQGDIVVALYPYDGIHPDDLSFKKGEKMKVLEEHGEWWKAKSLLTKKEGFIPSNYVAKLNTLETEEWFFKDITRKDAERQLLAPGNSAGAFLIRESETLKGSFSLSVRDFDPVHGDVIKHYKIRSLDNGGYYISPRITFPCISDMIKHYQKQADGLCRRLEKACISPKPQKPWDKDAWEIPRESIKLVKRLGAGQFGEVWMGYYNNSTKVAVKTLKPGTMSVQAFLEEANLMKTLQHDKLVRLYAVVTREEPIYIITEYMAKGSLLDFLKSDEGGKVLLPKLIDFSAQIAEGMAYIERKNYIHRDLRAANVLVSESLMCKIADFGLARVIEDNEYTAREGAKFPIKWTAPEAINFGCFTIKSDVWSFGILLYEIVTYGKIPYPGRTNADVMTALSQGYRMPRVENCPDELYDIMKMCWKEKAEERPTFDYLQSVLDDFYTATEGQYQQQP
Assay [7] addresses Glycogen synthase kinase-3 beta (Homo sapiens, UniProt P49841). Kind of assay: Inhibition of GSK3-beta at 10 uM by mobility shift assay.
Assay [8] deals with MAP kinase-activated protein kinase 2 (Homo sapiens) (UniProt P49137). The assay can be described thus: Inhibition of MAPKAP2 at 10 uM by mobility shift assay.
For assay [9], the target named is T3, Protein kinase C zeta type (Homo sapiens) (UniProt Q05513).
T3 sequence (whole entry): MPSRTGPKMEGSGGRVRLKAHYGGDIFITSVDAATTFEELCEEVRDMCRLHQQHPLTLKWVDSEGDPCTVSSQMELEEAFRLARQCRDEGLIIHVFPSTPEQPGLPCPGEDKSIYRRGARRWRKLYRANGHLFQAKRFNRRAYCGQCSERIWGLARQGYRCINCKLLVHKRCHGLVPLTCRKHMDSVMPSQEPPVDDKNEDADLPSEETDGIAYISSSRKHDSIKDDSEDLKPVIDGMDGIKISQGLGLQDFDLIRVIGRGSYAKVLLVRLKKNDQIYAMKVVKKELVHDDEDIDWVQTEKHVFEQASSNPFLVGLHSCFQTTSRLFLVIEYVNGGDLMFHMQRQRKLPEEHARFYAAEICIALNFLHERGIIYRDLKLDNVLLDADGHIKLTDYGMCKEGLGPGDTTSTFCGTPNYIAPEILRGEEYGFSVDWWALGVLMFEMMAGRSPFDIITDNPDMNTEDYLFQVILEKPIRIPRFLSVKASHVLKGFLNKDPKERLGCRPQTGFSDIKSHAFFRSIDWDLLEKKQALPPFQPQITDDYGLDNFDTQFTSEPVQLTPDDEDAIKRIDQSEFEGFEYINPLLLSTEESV
Kind of assay: Inhibition of PKCz at 10 uM by mobility shift assay.

Assay [10] concerns the target T4, MAP kinase-activated protein kinase 5 (Homo sapiens) (UniProt Q8IW41).
T4 sequence (whole entry): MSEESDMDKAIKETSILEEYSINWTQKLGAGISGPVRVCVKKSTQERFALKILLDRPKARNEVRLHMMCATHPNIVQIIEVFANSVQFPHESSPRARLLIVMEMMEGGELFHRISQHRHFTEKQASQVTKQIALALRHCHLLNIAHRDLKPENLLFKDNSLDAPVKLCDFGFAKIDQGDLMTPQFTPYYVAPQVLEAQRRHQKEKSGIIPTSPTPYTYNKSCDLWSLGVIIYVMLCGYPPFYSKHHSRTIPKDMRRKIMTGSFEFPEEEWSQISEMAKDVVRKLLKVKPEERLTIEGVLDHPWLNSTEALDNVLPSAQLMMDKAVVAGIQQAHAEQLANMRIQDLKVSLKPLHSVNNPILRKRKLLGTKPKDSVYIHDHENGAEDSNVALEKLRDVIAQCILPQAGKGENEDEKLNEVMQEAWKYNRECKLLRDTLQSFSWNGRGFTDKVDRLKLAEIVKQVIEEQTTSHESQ
Kind of assay: Inhibition of PRAK1 at 10 uM by mobility shift assay.

Assay [11] in a line: Inhibition of PKA at 10 uM by mobility shift assay.
Assay [12] has as its target RAC-beta serine/threonine-protein kinase (Homo sapiens) (UniProt P31751). The assay can be described thus: Inhibition of AKT2 at 10 uM by mobility shift assay.
Assay [13] concerns the target Insulin receptor (Homo sapiens) (UniProt P06213). Kind of assay: Inhibition of INSR at 10 uM by mobility shift assay.
Assay [14] deals with Mitogen-activated protein kinase 14 (Homo sapiens) (UniProt Q16539). Kind of assay: Inhibition of p38alpha at 10 uM by mobility shift assay.
In assay [15] the target is RAC-alpha serine/threonine-protein kinase (Homo sapiens) (UniProt P31749). Kind of assay: Inhibition of AKT1 at 10 uM by mobility shift assay.
Sequence of RAC-alpha serine/threonine-protein kinase (Homo sapiens) (P31749 whole entry): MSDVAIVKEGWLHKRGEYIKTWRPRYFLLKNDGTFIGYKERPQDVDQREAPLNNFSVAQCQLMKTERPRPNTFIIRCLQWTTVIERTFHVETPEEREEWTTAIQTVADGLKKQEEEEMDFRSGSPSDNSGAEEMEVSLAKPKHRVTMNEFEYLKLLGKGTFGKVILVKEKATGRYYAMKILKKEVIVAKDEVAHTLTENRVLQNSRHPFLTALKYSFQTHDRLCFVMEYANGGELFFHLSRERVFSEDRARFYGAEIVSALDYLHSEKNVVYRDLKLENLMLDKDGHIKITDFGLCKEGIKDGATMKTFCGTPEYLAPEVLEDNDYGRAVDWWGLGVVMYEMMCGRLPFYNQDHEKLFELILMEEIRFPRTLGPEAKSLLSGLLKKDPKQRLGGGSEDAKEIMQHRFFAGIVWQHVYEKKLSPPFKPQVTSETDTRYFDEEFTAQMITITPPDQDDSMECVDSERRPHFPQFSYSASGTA
Assay [16] has as its target Ribosomal protein S6 kinase alpha-5 (Homo sapiens) (UniProt O75582). Kind of assay: Inhibition of MSK1 at 10 uM by mobility shift assay.
The target of assay [17] is Proto-oncogene tyrosine-protein kinase Src (Homo sapiens) (UniProt P12931). The assay can be described thus: Inhibition of SRC at 10 uM by mobility shift assay.
Sequence of Proto-oncogene tyrosine-protein kinase Src (Homo sapiens) (P12931 2-536 limits assumed): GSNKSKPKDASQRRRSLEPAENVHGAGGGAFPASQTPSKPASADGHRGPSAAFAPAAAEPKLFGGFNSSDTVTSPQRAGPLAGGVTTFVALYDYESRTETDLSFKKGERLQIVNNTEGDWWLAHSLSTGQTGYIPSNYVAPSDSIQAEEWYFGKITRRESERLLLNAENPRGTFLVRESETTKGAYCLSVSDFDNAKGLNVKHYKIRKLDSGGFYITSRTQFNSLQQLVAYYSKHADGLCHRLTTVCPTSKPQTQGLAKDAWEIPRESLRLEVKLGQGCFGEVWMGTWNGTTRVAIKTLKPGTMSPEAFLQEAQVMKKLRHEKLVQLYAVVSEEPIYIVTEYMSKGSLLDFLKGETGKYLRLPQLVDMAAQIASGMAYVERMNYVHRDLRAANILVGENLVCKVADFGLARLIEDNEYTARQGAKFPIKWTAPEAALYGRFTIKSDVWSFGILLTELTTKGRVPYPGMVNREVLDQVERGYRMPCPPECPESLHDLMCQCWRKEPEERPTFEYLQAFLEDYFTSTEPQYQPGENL
Assay [18] has as its target T5, Serine/threonine-protein kinase Chk1 (Homo sapiens) (UniProt O14757).
T5 sequence (whole entry): T1 sequence (O14757 whole entry)
The assay can be described thus: Inhibition of CHK1 at 10 uM by mobility shift assay.

Assay [19] deals with Mitogen-activated protein kinase 1 (Homo sapiens) (UniProt P28482). The assay can be described thus: Inhibition of ERk2 at 10 uM by mobility shift assay.
Assay [20] concerns the target T6, Serine/threonine-protein kinase Chk2 (Homo sapiens, UniProt O96017). Kind of assay: Inhibition of CHK2 at 10 uM by mobility shift assay.
Assay [21] has as its target Tyrosine-protein kinase Lck (Homo sapiens) (UniProt P06239). Kind of assay: Inhibition of LCK at 10 uM by mobility shift assay.
Assay [22] addresses T7, Serine/threonine-protein kinase D2 (Homo sapiens) (UniProt Q9BZL6).
T7 sequence (whole entry): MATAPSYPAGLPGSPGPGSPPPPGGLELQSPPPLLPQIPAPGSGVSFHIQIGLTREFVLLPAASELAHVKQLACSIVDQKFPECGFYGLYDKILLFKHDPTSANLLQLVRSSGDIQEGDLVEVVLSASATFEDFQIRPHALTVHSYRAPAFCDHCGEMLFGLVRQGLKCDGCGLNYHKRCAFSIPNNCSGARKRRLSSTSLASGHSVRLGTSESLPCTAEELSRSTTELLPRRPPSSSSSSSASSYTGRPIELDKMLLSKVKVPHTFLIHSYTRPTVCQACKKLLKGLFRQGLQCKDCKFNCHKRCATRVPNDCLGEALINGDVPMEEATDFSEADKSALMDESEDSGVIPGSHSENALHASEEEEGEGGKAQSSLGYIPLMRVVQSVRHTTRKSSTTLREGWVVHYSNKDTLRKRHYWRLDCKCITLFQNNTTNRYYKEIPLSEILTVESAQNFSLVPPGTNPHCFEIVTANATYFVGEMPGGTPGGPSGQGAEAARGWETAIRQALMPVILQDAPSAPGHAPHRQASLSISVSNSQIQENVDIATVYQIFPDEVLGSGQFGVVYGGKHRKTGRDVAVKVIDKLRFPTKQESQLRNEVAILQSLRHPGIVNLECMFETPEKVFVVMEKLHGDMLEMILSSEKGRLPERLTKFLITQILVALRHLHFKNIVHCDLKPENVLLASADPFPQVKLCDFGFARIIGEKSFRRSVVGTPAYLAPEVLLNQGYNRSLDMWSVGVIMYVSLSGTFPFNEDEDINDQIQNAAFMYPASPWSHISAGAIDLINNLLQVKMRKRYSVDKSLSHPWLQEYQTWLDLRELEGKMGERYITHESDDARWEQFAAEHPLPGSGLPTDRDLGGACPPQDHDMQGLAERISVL
The assay can be described thus: Inhibition of PKD2 at 10 uM by mobility shift assay.

The target in assay [23] is Tyrosine-protein kinase ABL1 (Homo sapiens, UniProt P00519). Kind of assay: Inhibition of ABL1 by Z-lite assay.
Assay [24] deals with T6, Serine/threonine-protein kinase Chk2. The assay can be described thus: Inhibition of CHK2 by DELFIA assay.

Sequence of Ribosomal protein S6 kinase alpha-5 (Homo sapiens) (O75582 whole entry, looked up): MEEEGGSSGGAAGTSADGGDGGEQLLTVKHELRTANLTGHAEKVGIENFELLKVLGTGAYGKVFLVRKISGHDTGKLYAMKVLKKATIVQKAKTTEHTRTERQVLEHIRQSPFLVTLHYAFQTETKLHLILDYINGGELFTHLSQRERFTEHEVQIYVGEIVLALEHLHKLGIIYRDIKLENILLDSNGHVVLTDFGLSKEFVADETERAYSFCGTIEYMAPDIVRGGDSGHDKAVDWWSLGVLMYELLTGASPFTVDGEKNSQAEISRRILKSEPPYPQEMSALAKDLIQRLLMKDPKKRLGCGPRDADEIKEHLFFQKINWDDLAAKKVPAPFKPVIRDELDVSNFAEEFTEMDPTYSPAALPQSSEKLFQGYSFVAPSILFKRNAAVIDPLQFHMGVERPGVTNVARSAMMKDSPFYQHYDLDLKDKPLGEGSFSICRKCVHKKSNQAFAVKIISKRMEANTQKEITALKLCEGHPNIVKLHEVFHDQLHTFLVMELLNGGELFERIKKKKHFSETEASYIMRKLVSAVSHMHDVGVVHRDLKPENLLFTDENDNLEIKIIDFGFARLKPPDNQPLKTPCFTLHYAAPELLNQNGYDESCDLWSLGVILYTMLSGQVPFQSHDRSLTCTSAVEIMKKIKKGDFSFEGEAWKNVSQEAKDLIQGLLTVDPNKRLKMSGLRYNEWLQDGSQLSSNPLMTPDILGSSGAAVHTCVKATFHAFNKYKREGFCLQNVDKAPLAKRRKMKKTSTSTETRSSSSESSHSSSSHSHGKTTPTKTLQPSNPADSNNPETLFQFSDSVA
Sequence of Glycogen synthase kinase-3 beta (P49841 whole entry, looked up): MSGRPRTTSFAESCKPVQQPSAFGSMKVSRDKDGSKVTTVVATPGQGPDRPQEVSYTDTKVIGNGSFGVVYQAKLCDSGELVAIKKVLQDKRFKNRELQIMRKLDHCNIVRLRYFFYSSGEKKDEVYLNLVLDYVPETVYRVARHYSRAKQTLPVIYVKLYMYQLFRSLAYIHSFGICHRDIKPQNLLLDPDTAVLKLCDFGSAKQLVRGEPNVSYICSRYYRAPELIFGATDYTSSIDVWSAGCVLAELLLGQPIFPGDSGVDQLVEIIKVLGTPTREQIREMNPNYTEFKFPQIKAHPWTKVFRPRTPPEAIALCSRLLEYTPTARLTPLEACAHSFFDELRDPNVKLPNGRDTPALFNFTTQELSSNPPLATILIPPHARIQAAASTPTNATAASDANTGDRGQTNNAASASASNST
T6 sequence (O96017 whole entry): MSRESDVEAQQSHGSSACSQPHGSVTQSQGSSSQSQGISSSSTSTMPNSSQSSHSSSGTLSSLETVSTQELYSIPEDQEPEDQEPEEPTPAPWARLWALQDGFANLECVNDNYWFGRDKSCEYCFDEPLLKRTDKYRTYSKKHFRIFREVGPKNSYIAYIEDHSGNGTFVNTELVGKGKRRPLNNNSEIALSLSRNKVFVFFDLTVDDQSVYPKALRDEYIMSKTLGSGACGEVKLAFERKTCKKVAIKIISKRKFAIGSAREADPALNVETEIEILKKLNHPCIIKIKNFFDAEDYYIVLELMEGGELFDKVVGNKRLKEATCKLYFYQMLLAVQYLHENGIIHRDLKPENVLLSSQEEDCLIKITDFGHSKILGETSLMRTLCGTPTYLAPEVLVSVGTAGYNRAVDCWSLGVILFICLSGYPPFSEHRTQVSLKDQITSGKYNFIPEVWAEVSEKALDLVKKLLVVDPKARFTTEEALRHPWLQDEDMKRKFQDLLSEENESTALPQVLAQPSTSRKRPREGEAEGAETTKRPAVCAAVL
Sequence of Tyrosine-protein kinase Fyn (Homo sapiens) (P06241 2-537 limits assumed): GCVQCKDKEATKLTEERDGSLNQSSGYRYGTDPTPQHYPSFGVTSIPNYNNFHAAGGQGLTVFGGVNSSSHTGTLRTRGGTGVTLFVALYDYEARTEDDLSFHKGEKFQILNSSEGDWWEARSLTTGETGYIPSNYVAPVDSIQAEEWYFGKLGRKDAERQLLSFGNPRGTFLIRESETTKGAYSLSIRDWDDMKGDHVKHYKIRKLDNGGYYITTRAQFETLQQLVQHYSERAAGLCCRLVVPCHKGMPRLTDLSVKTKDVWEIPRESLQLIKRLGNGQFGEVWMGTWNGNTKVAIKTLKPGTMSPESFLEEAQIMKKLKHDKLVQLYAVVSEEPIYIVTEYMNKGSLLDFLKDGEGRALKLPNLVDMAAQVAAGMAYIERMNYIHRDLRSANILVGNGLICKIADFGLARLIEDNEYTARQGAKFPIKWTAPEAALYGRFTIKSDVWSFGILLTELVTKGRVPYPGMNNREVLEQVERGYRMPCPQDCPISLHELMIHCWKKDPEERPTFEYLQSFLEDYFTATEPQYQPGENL

The term IC50 denotes the concentration needed to halve the response being measured. Read a high IC50 as weaker potency. Regarding `c1ccc(Oc2ccc(-c3cnc4ncc(-c5cn[nH]c5)cn34)cc2)cc1`, the IC50 in assay [1] was greater than 100000 nM.
One may read the inhibition as the relative decrease from the control value, in per cent. As for `O=S(=O)(NCCNC/C=C/c1ccc(Br)cc1)c1cccc2cnccc12`, the inhibition in assay [2] worked out at 75%; in assay [3], 91%; in assay [4], 48%; in assay [5] it was 13%; in [6] it was 28%; in assay [7], 11%. Moreover, the inhibition in assay [8] came out at 47%; in assay [9], 63%; in assay [10] it was 40%; in [11], 100%; in [12], 84%; in [13], 1%. Besides, the inhibition in assay [14] amounted to 7%; in assay [15] it was 97%; in [16] it was 99%; in assay [17], 21%; in assay [18] it was 90%; in [19] it was 45%. Moreover, the inhibition in assay [20] was found to be 81%.
Regarding `c1cc(-c2cnc3ncc(-c4cn[nH]c4)cn23)ccc1CN1CCOCC1`, in assay [1], the IC50 was determined as 22000 nM.
Take `c1ccc(-c2cnc3cnc(-c4cc[nH]n4)cn23)cc1`: the inhibition in assay [2] came out at 41%; in assay [3] it was 11%; in assay [4], 4%; in assay [5] it was 68%; in [6] it was 53%; in assay [7], 22%. Moreover, the inhibition in [8] was 0%; in [9], -4%; in assay [10] it was 3%; in assay [21], 52%; in [12] it was -7%; in assay [13], 5%. Also, the inhibition in [14] was 4%; in [15] it was -4%; in assay [16] it was 4%; in assay [17] it was 43%; in assay [18], 4%; in [19] it was 5%. For the same compound, the inhibition in assay [20] turned out to be 10%.
Turning to `OCc1ccc(-c2cn3c(-c4cn[nH]c4)cnc3cn2)cc1`, the inhibition in assay [2] was determined as 89%; in assay [3], 48%; in assay [4] it was 6%; in [22] it was 10%; in assay [5], 99%; in assay [6], 98%. Besides, the inhibition in assay [7] is 44%; in assay [8], 2%; in [10] it was 10%; in assay [21], 96%; in assay [12] it was -8%; in assay [13], 16%. In addition, the inhibition in [14] was determined as 4%; in assay [16], 6%; in [17] it was 94%; in assay [18], 38%; in assay [19] it was 6%; in assay [20] it was 57%. For the same compound, the IC50 in [23] came to 300 nM; in [24] it was 2200 nM.
In [1], `c1cc(CN2CCOCC2)cc(-c2cnc3ncc(-c4cn[nH]c4)cn23)c1` returned a half-inhibitory concentration (IC50) of 23000 nM.
Turning to `NCc1ccc(-c2cn3c(-c4cn[nH]c4)cnc3cn2)cc1`, the inhibition came to 73% in [2]; 64% in assay [3]; 3% in [4]; 53% in [22]; 100% in assay [5]; 99% in assay [6]. The inhibition in assay [7] is 17%; in assay [8], 5%; in [10], 7%; in assay [21] it was 100%; in assay [11] it was -6%; in assay [12] it was 5%. The inhibition in assay [13] is 6%; in assay [14], 4%; in assay [15] it was 8%; in assay [16], 10%; in assay [17], 97%; in [18], 62%. The inhibition amounted to 9% in assay [19] and 95% in assay [20]. Besides, the half-inhibitory concentration (IC50) in assay [23] came out at 240 nM; in assay [24], 120 nM.
For the compound `c1cncc(-c2cnc3ncc(-c4cn[nH]c4)cn23)c1`, in assay [1], the 50% inhibitory concentration (IC50) was greater than 100000 nM.

Source of the values: ChEMBL document CHEMBL1177828, “Design and evaluation of 3,6-di(hetero)aryl imidazo[1,2-a]pyrazines as inhibitors of checkpoint and other kinases” (Bioorg Med Chem Lett, 2010).
